Experimental data as given in patent publication US5013722A, “Cholecystokinin analogs for controlling appetite” (Hoffmann-LaRoche Inc., priority 1989, dated 1991).
pIC50: −log10 of the molar value. Where a SMILES comes first, the peptide text is derived from it. Where no end group is shown, it is not given here. [ ]: non-standard residue; d: D form. The star is where a group is joined. Thr(SO3H) = C[C@@H](OS(=O)(=O)O)[C@H](N)C(=O)O; sY = N[C@@H](Cc1ccc(OS(=O)(=O)O)cc1)C(=O)O; NMeF = CN[C@@H](Cc1ccccc1)C(=O)O; Nle = CCCC[C@H](N)C(=O)O; For = O=C*

Key:
[1] = target: T1, receptors in rat pancreas (3H-CCK-8-(SO3 H) binding) (Rattus norvegicus, UniProt P30551); assay: In vitro receptor binding assay, rat pancreas homogenate, 3H-CCK-8-(SO3H) radioligand
T1 construct: receptors in homogenized preparations of rat pancreatic cells and bovine striata; from tissue; host or cells: rat pancreas homogenate (48,000 x g pellet)
T1 sequence (P30551 1-444): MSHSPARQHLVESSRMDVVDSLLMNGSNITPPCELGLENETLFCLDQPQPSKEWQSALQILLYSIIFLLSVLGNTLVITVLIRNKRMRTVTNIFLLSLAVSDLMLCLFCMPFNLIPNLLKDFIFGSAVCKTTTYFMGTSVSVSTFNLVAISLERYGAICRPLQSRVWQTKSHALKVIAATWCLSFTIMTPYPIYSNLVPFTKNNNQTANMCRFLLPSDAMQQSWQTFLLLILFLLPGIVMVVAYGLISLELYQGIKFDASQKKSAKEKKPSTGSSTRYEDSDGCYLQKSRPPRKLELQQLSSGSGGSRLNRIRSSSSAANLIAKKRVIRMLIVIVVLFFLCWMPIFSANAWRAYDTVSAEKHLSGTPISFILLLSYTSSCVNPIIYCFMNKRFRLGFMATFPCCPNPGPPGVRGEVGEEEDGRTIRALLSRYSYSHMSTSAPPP
Procedure: This strategy was utilized to minimize central nervous system side effects by identifying peptides with peripheral receptor selectivity. […] The tissue was homogenized 2 x for approx. 15 sec. at 0° C. using a Polytron homogenizer at a setting of 6. The tissue was isolated by centrifugation at 48,000 x g for 10 min. at 0° C. […] Samples were incubated for 30 min. at 25° C. and the incubation terminated by pouring the mixture onto a pre-wet Whatman GF/B filter on a Sandbeck Vacuum Filtration Manifold. The incubation tubes were washed with 2×3 ml of ice-cold HEPES Buffer #2 and the wash filtered through the GF/B filter. The filter was air dried for 10 min. and then placed in a scintillation vial with 12 ml of Beckman HP/b Ready-Solv scintillation cocktail. The vials were shaken for 2 hours and then counted using a Beckman Model 7800 liquid scintillation spectrometer.

[2] = target: T2, receptors in bovine striatum (3H-CCK-8-(SO3 H) binding, central receptor) (Bos taurus, UniProt P79266); assay: In vitro receptor binding assay, bovine striatum homogenate, 3H-CCK-8-(SO3H) radioligand; settings: 0.15 nM radioligand, 30 min, 25° C.; read-out: Bovine Striatum IC50 (inhibition of specific 3H-CCK-8-(SO3H) binding)
T2 construct: receptors in homogenized preparations of rat pancreatic cells and bovine striata; from tissue; host or cells: bovine striatum homogenate (48,000 x g pellet)
T2 sequence (P79266 1-454): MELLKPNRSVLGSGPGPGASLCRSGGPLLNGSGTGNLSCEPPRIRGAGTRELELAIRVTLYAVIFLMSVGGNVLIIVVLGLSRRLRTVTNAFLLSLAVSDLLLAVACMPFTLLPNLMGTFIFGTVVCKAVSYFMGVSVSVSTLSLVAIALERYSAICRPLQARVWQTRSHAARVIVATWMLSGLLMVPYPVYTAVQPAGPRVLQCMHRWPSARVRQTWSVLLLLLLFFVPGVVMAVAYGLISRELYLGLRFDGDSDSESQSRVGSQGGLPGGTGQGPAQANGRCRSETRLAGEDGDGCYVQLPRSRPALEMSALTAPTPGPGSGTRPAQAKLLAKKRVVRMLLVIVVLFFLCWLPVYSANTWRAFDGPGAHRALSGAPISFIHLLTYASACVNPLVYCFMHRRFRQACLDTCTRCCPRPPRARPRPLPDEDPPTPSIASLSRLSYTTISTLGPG
Procedure: Frozen bovine striatum (approx. 5 g) and fresh rat pancreas (approx. 5 g) cleaned of fat and extraneous tissue were homogenized in HEPES buffer #1 (10 mM HEPES+130 mM NaCl+5 mM MgCl2. pH 7.4) using 35 parts buffer per 1 part tissue on a wet weight/volume basis (approx. 175 ml). The tissue was homogenized 2 x for approx. 15 sec. at 0° C. using a Polytron homogenizer at a setting of 6. The tissue was isolated by centrifugation at 48,000 x g for 10 min. at 0° C. The resulting tissue pellet was resuspended in HEPES buffer #2 (10 mM HEPES+130 mM NaCl+5 mM MgCl2 +1 mg/L phenylmethanesulfonyl fluoride (PMSF)+200 mg/L Bacitracin): 1 part striatal tissue (original wet weight) per 80 parts buffer and 1 part pancreas tissue (original wet weight) per 70 parts buffer.
Incubation was initiated by combining various concentrations of native CCK-8 or peptides of formula I, II and III with ^3 H-CCK-8-(SO3 H) (final conc.=0.15 nM) and tissue homogenate (striatum 0.26 mg protein in 2 ml final volume; pancreas 0.165 mg protein in 1 ml final volume). Samples were incubated for 30 min. at 25° C. and the incubation terminated by pouring the mixture onto a pre-wet Whatman GF/B filter on a Sandbeck Vacuum Filtration Manifold. The incubation tubes were washed with 2×3 ml of ice-cold HEPES Buffer #2 and the wash filtered through the GF/B filter. The filter was air dried for 10 min. and then placed in a scintillation vial with 12 ml of Beckman HP/b Ready-Solv scintillation cocktail. The vials were shaken for 2 hours and then counted using a Beckman Model 7800 liquid scintillation spectrometer. Non-specific binding was determined in the presence of 1 micromole native CCK-8 and subtracted from all samples to determine specific binding. The concentration of ^3 peptide necessary to inhibit 50% of total specific H-CCK-8-(SO3 H) binding (IC50 value) was determined by log-probit analysis.

[3] = target: T3, Rat kidney metalloendopeptidase (Rattus norvegicus, UniProt P07861); assay: Degradation by rat kidney metalloendopeptidase (HPLC); assay type: in vitro ADME; settings: for % Degradation by Height: 37° C., pH 7.6
T3 construct: from tissue; host or cells: rat kidney
T3 sequence (P07861 1-750): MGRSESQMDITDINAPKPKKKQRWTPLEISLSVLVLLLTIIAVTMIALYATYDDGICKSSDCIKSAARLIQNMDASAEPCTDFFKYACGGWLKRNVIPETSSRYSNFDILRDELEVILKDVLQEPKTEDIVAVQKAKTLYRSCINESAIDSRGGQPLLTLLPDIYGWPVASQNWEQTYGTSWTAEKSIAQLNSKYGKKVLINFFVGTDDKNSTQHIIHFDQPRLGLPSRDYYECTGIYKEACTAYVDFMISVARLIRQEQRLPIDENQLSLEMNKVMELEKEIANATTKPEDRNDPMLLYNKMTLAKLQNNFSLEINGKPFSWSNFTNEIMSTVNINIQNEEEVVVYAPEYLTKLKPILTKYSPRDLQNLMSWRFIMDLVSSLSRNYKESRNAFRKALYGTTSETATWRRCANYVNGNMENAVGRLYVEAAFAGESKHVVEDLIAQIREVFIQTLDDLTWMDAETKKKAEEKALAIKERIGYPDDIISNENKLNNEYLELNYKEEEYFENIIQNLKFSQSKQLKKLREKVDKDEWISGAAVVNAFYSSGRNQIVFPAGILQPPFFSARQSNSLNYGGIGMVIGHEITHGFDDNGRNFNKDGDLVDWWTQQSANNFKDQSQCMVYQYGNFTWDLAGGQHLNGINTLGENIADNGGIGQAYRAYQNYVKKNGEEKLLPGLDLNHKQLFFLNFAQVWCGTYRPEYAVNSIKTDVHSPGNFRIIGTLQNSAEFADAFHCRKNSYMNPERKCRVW
Procedure: Rat kidney metalloendopeptidase (0.01 μg) and 5 nmol of peptide were incubated in 2 μmol tris-HCl buffer (pH 7.6) and at 37° C. for varying periods of time. The degradation of the peptide was monitored by analytical HPLC on a 5 micron Adsorbosphere-ODS column with a 0-50% CH3 CN gradient in 0.1N potassium phosphate, pH 3.0, with UV detection at 210 nm. Rates are based on presumed production of Asp-Tyr(SO3 H)-Met-Gly for CCK-8 and the presumed production of Ac-Tyr(SO3 H)-Met-Gly for Example 2 and 3.

[4] = system: Male Sprague-Dawley (CD) rats, food intake; assay: Two-meal feeding assay, intraperitoneal administration; assay type: in vivo, rat; settings: 32 microgm/Kg i.p., mean ± SEM; for Food Intake 1st Meal: 15 min before first meal
Procedure: (§1) Male Sprague-Dawley (CD) rats weighing 180-200 grams (Charles River Breeding Laboratories) were acclimated to a 12 h light/dark cycle (6 a.m. to 6 p.m.) in a room kept at 22° C. They were subsequently fasted for two days, weighed, placed in individual cages, and a four-day period of meal training was begun. During this time the rats were given ground laboratory chow (Purina Lab Chow) in jars for one hour from 9:00 a.m. until 10:00 a.m., the jars were removed from 10:00 a.m. to 12:00 p.m., and placed back in the cages from 12:00 until 1:00 p.m. Under this `1-2-1` meal feeding regime most rats learn to eat approximately as much Per day during the two hours they have access to food as rats which have food ad libitum over the entire 24-hour day. On the fourth day, the rats were weighed again, and any which lost more than five grams body weight were excluded from the test. The animals were then distributed into experimental (n=5 to 6) and control groups (n=6-12). but not matched for body weight.
Peptides of the invention were suspended either in saline. if soluble, or in 1% gum arabic, if insoluble, at concentrations of 0 to 320 μg/ml/kg body weight and were administered intraperitonerally 15 min before the first meal on day 5 of meal feeding. The rats were then given their meals as they had been during the previous four days, and the food cups were weighed both before and after each meal to determine food consumption. Food intake was expressed as a mean and standard error of the mean in grams consumed or as a percent of control values for the various groups. The treated groups were compared to the control groups by t-test analysis. […]

rat and monkey, satiety = settings: cited from earlier work
[5] = system: lean and obese men, food intake; settings: cited from earlier work
Male rats, food intake = assay: Two-meal feeding assay, intranasal administration; assay type: in vivo, rat
Procedure: as §1
Male rats were meal trained as described in Example 9. The peptide of Example 2 was dissolved in saline and was administered to the rats intranasally. CCK-8, dissolved in saline was used as a control.

[6] = 1000 μg/kg intranasal, saline = 100

Molecule	pIC50 ([1]; 0.15 nM radioligand, 30 min, 25° C., read-out: Rat Pancreas IC50 (inhibition of specific 3H-CCK-8-(SO3H) binding))	pIC50 [2]	% Degradation by Height ([3]; incubation 0 min) [%]	% Degradation by Height ([3]; incubation 60 min) [%]	% Degradation by Height ([3]; incubation 120 min) [%]	No. of Peaks (degradation products) ([3]; incubation 240 min)	% Degradation by Height ([3]; incubation 240 min) [%]	Food Intake 1st Meal [4]	Food Intake 2nd Meal [4]	Satiety after peripheral administration (rat and monkey, satiety)	Binding selectivity, receptor sites in pancreas versus brain ([1]; rat pancreas vs bovine striatum)	Food intake after infusion [5]	Food Intake (activity in words) (Male rats, food intake; 400 μg/kg intranasal)	Food Intake 1st meal Grams consumed (Male rats, food intake; 1000 μg/kg intranasal) [Grams]	Food Intake 2nd meal Grams consumed (Male rats, food intake; 1000 μg/kg intranasal) [Grams]	Food Intake 1st meal (%) (Male rats, food intake; [6])	Food Intake 2nd meal (%) (Male rats, food intake; [6])	% Degradation by Height ([3]; incubation 15 min) [%]	% Degradation by Height ([3]; incubation 30 min) [%]	No. of Peaks (degradation products) ([3]; incubation 60 min)
CCCC[C@H](NC(=O)[C@H](Cc1ccc(OS(=O)(=O)O)cc1)NC(C)=O)C(=O)N[C@H](C)C(=O)N[C@@H](Cc1cn(C=O)c2ccccc12)C(=O)N[C@@H](CCSC)C(=O)N[C@H](C(=O)N(C)[C@@H](Cc1ccccc1)C(N)=O)[C@@H](C)OS(=O)(=O)O [Example 3, Ac-Tyr-(SO3 H)-Nle-(D)Ala-Trp(For)-Met-Thr(SO3 H)-N-methyl-Phe-NH2] (Ac-[sY][Nle][dA]W(For)M[Thr(SO3H)][NMeF]-NH2)	7.00	7.00	0	0	0	0	0	34 ± 6 % of Control	164 ± 16 % of Control											
Cholecystokinin (KAPSGRVSMIKNLQSLDPSHRISDRDYMGWMDF; ends and bridges not checked; UniProt P01356 70-102, looked up) [CCK, polypeptide hormone first isolated as a 33-amino acid peptide from the porcine gastrointestinal tract]										produce satiety in the rat and the monkey										
CSCC[C@H](NC(=O)[C@H](Cc1ccc(OS(=O)(=O)O)cc1)NC(=O)[C@@H](N)CC(=O)O)C(=O)NCC(=O)N[C@@H](Cc1c[nH]c2ccccc12)C(=O)N[C@@H](CCSC)C(=O)N[C@@H](CC(=O)O)C(=O)N[C@@H](Cc1ccccc1)C(N)=O [CCK-8, Asp--Tyr(SO3 H)--Met--Gly--Trp--Met--Asp--Phe--NH2, reference compound]			0	69.7				27 ± 17 % of Control	149 ± 6 % of Control		binds to receptor sites in the pancreas and brain	decrease food intake in lean and obese men	Inactive	4.9 ± 0.7	6.3 ± 05	66	112	6.2	33.2	4
